The structures appear in SMILES notation. pIC50: −log10 of the molar value.

The target in the first assay is T1, His tagged full-length PTP1B protein (Homo sapiens, UniProt P18031).
T1 construct: made in house
T1 sequence (P18031 with tags, fused parts or gaps): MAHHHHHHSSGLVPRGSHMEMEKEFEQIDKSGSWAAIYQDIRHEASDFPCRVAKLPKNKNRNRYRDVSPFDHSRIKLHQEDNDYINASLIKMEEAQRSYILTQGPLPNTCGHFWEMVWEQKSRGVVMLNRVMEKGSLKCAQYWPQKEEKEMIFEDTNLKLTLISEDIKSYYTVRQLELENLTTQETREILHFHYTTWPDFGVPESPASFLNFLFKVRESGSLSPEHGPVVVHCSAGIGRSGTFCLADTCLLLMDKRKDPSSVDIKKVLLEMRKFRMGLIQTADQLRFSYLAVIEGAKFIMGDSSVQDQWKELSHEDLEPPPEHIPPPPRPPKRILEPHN
The experiment in a line: Mobility Shift Assay (MSA) used to determine potency of PTP1B inhibitors. Format: biochemical. Particulars: Table 2. On the procedure:
The enzymatic assay used to determine activity is a mobility shift assay using a LabChip EZ Reader by Caliper Life Sciences. The enzymatic reaction was carried out in assay buffer (50 mM HEPES pH 7.5, 1 mM EGTA, 10 mM EDTA, 0.01% Tween® 20, and 2 mM DTT). […] The enzyme (at 0.5 nM) was incubated with compound for 10 minutes at room temperature. […] The % inhibition was then used to calculate the IC50 values.
As for `CC(C)NCCCc1ccc2cc(O)c(N3CC(=O)NS3(=O)=O)c(F)c2c1` [Compound 349, 5-(1-fluoro-3-hydroxy-7-{3-[(propan-2-yl)amino]propyl}naphthalen-2-yl)-1λ^6,2,5-thiadiazolidine-1,1,3-trione], the pIC50 is 8.00 to 9.00.
Same read-out and setting: next, `CC(C)(O)CCNc1ccc2c(F)c(N3CC(=O)NS3(=O)=O)c(O)cc2c1` [Compound 333, 5-{1-fluoro-3-hydroxy-6-[(3-hydroxy-3-methylbutyl)amino]naphthalen-2-yl}-1λ^6,2,5-thiadiazolidine-1,1,3-trione]: 7.00 to 8.00.
Same read-out and setting: for `CC(C)CCOc1ccc2c(F)c(N3CC(=O)NS3(=O)=O)c(O)cc2c1` [Compound 339, 5-[1-fluoro-3-hydroxy-6-(3-methylbutoxy)naphthalen-2-yl]-1λ^6,2,5-thiadiazolidine-1,1,3-trione] the value was 7.00 to 8.00.

The target in the next assay is T2, His tagged PTPN2 (TC45) protein (Homo sapiens, UniProt P17706).
T2 construct: made in house
T2 sequence (P17706 with tags, fused parts or gaps isoform P17706-2): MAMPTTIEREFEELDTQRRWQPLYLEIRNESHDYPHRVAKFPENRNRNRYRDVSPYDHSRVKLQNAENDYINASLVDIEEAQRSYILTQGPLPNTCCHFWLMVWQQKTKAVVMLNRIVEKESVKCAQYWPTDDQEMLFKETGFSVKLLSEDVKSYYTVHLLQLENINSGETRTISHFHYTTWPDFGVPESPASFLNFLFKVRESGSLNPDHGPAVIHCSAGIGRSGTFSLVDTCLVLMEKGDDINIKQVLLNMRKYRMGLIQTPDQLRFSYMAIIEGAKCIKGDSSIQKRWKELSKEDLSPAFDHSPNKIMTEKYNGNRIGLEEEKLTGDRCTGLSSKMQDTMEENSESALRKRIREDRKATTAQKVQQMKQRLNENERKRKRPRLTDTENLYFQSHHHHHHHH
The experiment in a line: Mobility Shift Assay used to determine potency of PTPN2 inhibitors. Type of assay: biochemical. The conditions noted are these: Table 2; read-out: PTPN2 MSA IC50. On the procedure: Example 292: Mobility Shift Assay used to determine potency of PTPN2 inhibitors
Compound activity was determined using in house His tagged PTPN2 (TC45) protein (SEQ ID NO: 1) in an in vitro enzymatic reaction. The enzymatic assay used to determine activity was a mobility shift assay using a LabChip EZ Reader by Caliper Life Sciences. The enzymatic reaction was carried out in assay buffer (50 mM HEPES pH 7.5, 1 mM EGTA, 10 mM EDTA, 0.01% Tween® 20, and 2 mM DTT). The compounds were dispensed on a white 384 well ProxiPlate™ (PerkinElmer Catalog#6008289) plate using the Labcyte Echo at varying concentrations (12 point, 1:3 dilution). The enzyme (at 0.5 nM) was incubated with compound for 10 minutes at room temperature. Then the substrate (phosphorylated insulin receptor probe sequence: ((OG488)—{NH—CH2—CH2—O—CH2—CH2—O—CH2—CO)—T—R—D—I—(PY)—E—T—D—Y—Y—R—K—K—NH2) (SEQ ID NO: 2) was added at 2 μM to the plates and incubated for another 10 minutes at room temperature. Finally, a quench solution (water and 4-bromo-3-(2-oxo-2-propoxyethoxy)-5-(3-{[1-(phenylmethanesulfonyl)piperidin-4-yl]amino}phenyl)thiophene-2-carboxylic acid) was added to the plates, which were then run on the EZ Reader (excitation 488 nm, emission 530 nm) to measure % conversion (the amount of phosphorylated substrate which was de-phosphorylated by PTPN2). […] The % inhibition was then used to calculate the IC50 values.
As to `O=C1CN(c2c(O)cc3ccc(OCCC4COC4)cc3c2F)S(=O)(=O)N1` [Compound 373, 5-{1-fluoro-3-hydroxy-7-[2-(oxetan-3-yl)ethoxy]naphthalen-2-yl}-1λ^6,2,5-thiadiazolidine-1,1,3-trione], the pIC50 was 8.00 to 9.00.
Same read-out and setting: for `CC(C)NCCCc1ccc2cc(O)c(N3CC(=O)NS3(=O)=O)c(F)c2c1` [Compound 349, 5-(1-fluoro-3-hydroxy-7-{3-[(propan-2-yl)amino]propyl}naphthalen-2-yl)-1λ^6,2,5-thiadiazolidine-1,1,3-trione] the value was 8.00 to 9.00.
For the compound `CC(C)(O)CCNc1ccc2c(F)c(N3CC(=O)NS3(=O)=O)c(O)cc2c1` [Compound 333, 5-{1-fluoro-3-hydroxy-6-[(3-hydroxy-3-methylbutyl)amino]naphthalen-2-yl}-1λ^6,2,5-thiadiazolidine-1,1,3-trione], the negative logarithm of the IC50 (pIC50) is 7.00 to 8.00.
The same measure, in the same setting: next, `CC(C)CCOc1ccc2c(F)c(N3CC(=O)NS3(=O)=O)c(O)cc2c1` [Compound 339, 5-[1-fluoro-3-hydroxy-6-(3-methylbutoxy)naphthalen-2-yl]-1λ^6,2,5-thiadiazolidine-1,1,3-trione]: 7.00 to 8.00.
For `NCC12CC(CCOc3ccc4cc(O)c(N5CC(=O)NS5(=O)=O)c(F)c4c3)(C1)C2` [Compound 376, 5-(7-{2-[3-(aminomethyl)bicyclo[11.1.1]pentan-1-yl]ethoxy}-1-fluoro-3-hydroxynaphthalen-2-yl)-1λ^6,2,5-thiadiazolidine-1,1,3-trione], the pIC50 was 8.00 to 9.00.
Same read-out and setting: for `O=C1CN(c2c(O)cc3ccc(OCCC45CC(C4)C5)cc3c2F)S(=O)(=O)N1` [Compound 378, 5-{7-[2-(bicyclo[11.1.1]pentan-1-yl)ethoxy]-1-fluoro-3-hydroxynaphthalen-2-yl}-1λ^6,2,5-thiadiazolidine-1,1,3-trione] the value was greater than 9.00; for `NCC1(CCOc2ccc3cc(O)c(N4CC(=O)NS4(=O)=O)c(F)c3c2)CCC1` [Compound 379, 5-(7-{2-[1-(aminomethyl)cyclobutyl]ethoxy}-1-fluoro-3-hydroxynaphthalen-2-yl)-1λ^6,2,5-thiadiazolidine-1,1,3-trione], 8.00 to 9.00; for `O=C1CN(c2c(O)cc3ccc(OCCC4(CO)CCC4)cc3c2F)S(=O)(=O)N1` [Compound 374, 5-(1-fluoro-3-hydroxy-7-{2-[1-(hydroxymethyl)cyclobutyl]ethoxy}naphthalen-2-yl)-1λ^6,2,5-thiadiazolidine-1,1,3-trione], greater than 9.00.
Same read-out and setting: next, `O=C1CN(c2c(O)cc3ccc(OCCCC(F)F)cc3c2F)S(=O)(=O)N1` [Compound 372, 5-[7-(4,4-difluorobutoxy)-1-fluoro-3-hydroxynaphthalen-2-yl]-1λ^6,2,5-thiadiazolidine-1,1,3-trione]: greater than 9.00; `O=C1CN(c2c(O)cc3ccc(OCCN4CC(F)(F)C4)cc3c2F)S(=O)(=O)N1` [Compound 385, 5-{7-[2-(3,3-difluoroazetidin-1-yl)ethoxy]-1-fluoro-3-hydroxynaphthalen-2-yl}-1λ^6,2,5-thiadiazolidine-1,1,3-trione]: 8.00 to 9.00.
Take `CCN(C)CCOc1ccc2cc(O)c(N3CC(=O)NS3(=O)=O)c(F)c2c1` [Compound 388, 5-(7-{2-[ethyl(methyl)amino]ethoxy}-1-fluoro-3-hydroxynaphthalen-2-yl)-1λ^6,2,5-thiadiazolidine-1,1,3-trione]: the pIC50 is 8.00 to 9.00.
As to `O=C1CN(c2c(O)cc3ccc(OCCCC(F)(F)CO)cc3c2F)S(=O)(=O)N1` [Compound 375, 5-{7-[(4,4-difluoro-5-hydroxypentyl)oxy]-1-fluoro-3-hydroxynaphthalen-2-yl}-1λ^6,2,5-thiadiazolidine-1,1,3-trione], the negative logarithm of the IC50 (pIC50) is greater than 9.00.
Still for that read-out and setting: for `C[C@](O)(CO)CCOc1cc2c(F)c(N3CC(=O)NS3(=O)=O)c(O)cc2cc1O` [Compound 387, 5-{7-[(3R)-3,4-dihydroxy-3-methylbutoxy]-1-fluoro-3,6-dihydroxynaphthalen-2-yl}-1λ^6,2,5-thiadiazolidine-1,1,3-trione] the value was greater than 9.00; for `O=C1CN(c2c(O)cc3ccc(OCCN4Cc5ccccc5C4)cc3c2F)S(=O)(=O)N1` [Compound 384, 5-{7-[2-(1,3-dihydro-2H-isoindol-2-yl)ethoxy]-1-fluoro-3-hydroxynaphthalen-2-yl}-1λ^6,2,5-thiadiazolidine-1,1,3-trione], 8.00 to 9.00; for `O=C1CN(c2c(O)cc3ccc(OCCN4CCC(F)(F)C4)cc3c2F)S(=O)(=O)N1` [Compound 383, 5-{7-[2-(3,3-difluoropyrrolidin-1-yl)ethoxy]-1-fluoro-3-hydroxynaphthalen-2-yl}-1λ^6,2,5-thiadiazolidine-1,1,3-trione], 8.00 to 9.00.
The same measure, in the same setting: for `CC1(O)CN(CCOc2ccc3cc(O)c(N4CC(=O)NS4(=O)=O)c(F)c3c2)C1` [Compound 380, 5-{1-fluoro-3-hydroxy-7-[2-(3-hydroxy-3-methylazetidin-1-yl)ethoxy]naphthalen-2-yl}-1λ^6,2,5-thiadiazolidine-1,1,3-trione] the value was 8.00 to 9.00; for `O=C1CN(c2c(O)cc3ccc(C4=CCN(CCC5CC5)C4)cc3c2F)S(=O)(=O)N1` [Compound 244, 5-{7-[1-(2-cyclopropylethyl)-2,5-dihydro-1H-pyrrol-3-yl]-1-fluoro-3-hydroxynaphthalen-2-yl}-1λ^6,2,5-thiadiazolidine-1,1,3-trione], 7.00 to 8.00.
Regarding `COCCN(C)CCOc1ccc2cc(O)c(N3CC(=O)NS3(=O)=O)c(F)c2c1` [Compound 382, 5-(1-fluoro-3-hydroxy-7-{2-[(2-methoxyethyl)(methyl)amino]ethoxy}naphthalen-2-yl)-1λ^6,2,5-thiadiazolidine-1,1,3-trione], the negative-log IC50 (pIC50) is 7.00 to 8.00.
`O=C1CN(c2c(O)cc3ccc(OCC45CC(CCO)(C4)C5)cc3c2F)S(=O)(=O)N1` [Compound 377, 5-(1-fluoro-3-hydroxy-7-{[3-(2-hydroxyethyl)bicyclo[1.1.1]pentan-1-yl]methoxy}naphthalen-2-yl)-1λ^6,2,5-thiadiazolidine-1,1,3-trione]: the pIC50 was 8.00 to 9.00.
Same read-out and setting: next, `CC1(CCOc2cc3c(F)c(N4CC(=O)NS4(=O)=O)c(O)cc3cc2O)CC1` [Compound 386, 5-{1-fluoro-3,6-dihydroxy-7-[2-(1-methylcyclopropyl)ethoxy]naphthalen-2-yl}-1λ^6,2,5-thiadiazolidine-1,1,3-trione]: greater than 9.00.
The same measure, in the same setting: next, `O=C1CN(c2c(O)cc3ccc(OCCNCC(F)(F)F)cc3c2F)S(=O)(=O)N1` [Compound 390, 5-(1-fluoro-3-hydroxy-7-{2-[(2,2,2-trifluoroethyl)amino]ethoxy}naphthalen-2-yl)-1λ^6,2,5-thiadiazolidine-1,1,3-trione]: 8.00 to 9.00.
On the same count and under the same terms, next, `CN(CCC#N)CCOc1ccc2cc(O)c(N3CC(=O)NS3(=O)=O)c(F)c2c1` [Compound 389, 3-[(2-{[8-fluoro-6-hydroxy-7-(1,1,4-trioxo-1λ^6,2,5-thiadiazolidin-2-yl)naphthalen-2-yl]oxy}ethyl)(methyl)amino]propanenitrile]: 8.00 to 9.00; `O=C1CN(c2c(O)cc3ccc(OCCN4CCC[C@H]4C(F)(F)F)cc3c2F)S(=O)(=O)N1` [Compound 381, 5-(1-fluoro-3-hydroxy-7-{2-[(2S)-2-(trifluoromethyl)pyrrolidin-1-yl]ethoxy}naphthalen-2-yl)-1λ^6,2,5-thiadiazolidine-1,1,3-trione]: 8.00 to 9.00.

Source of the values: patent publication US20230019236A1, “PROTEIN TYROSINE PHOSPHATASE INHIBITORS AND METHODS OF USE THEREOF” (Calico Life Sciences LLC, priority 2019, published 2023).
